How the values were obtained:
Format in all cases: in vivo
[1] = test system: TGF-β1-induced fibrotic plaque in the rat tunica albuginea; assay: TGF-β1 rat model of Peyronie's disease, plaque and collagen deposition by Masson staining with QIA; settings: long-term oral L-NIL, TGF-β1 injected rat
Method: TGF-β1 rat model. Male Fisher 344 rats, 9-11 month old purchased from the NIH/NIA colony (Harlan Sprague-Dawley, Inc., San Diego, Calif.) and maintained under controlled temperature and lighting, were anesthetized and injected in the penile TA at the middle of the penis with either vehicle only (saline, group 1) or 0.5 μg recombinant human TGF-β1 (Biotech Diagnostic, Laguna Niguel, Calif., groups 2-5) as disclosed (Ferrini et al., 2002; Vernet et al., 2002). After the injection, groups 1 and 2 were given drinking water while the other groups received water with L-arginine (2.25 g/kg/day, group 3) (Moody et al., 1997), or sildenafil (10 mg/kg/day, group 4) or pentoxifylline (10 mg/kg/day, group 5). Forty-five days later, or as indicated, animals were sacrificed and perfused through the left ventricle with saline followed by 4% formalin ((Ferrini et al., 2002; Vernet et al., 2002). After the penises were excised, the penile skin was denuded by removing the glans and adhering non-crural tissue. The penile shaft was separated from the crura and 2-3 mm transverse slices were cut around the site of the saline or TGF-β1 injection. All tissues were post-fixed overnight in 4% formalin, washed in PBS and stored at 4° C.
In the case of tissue sections, the determinations of the collagen/smooth muscle ratio were carried out with Masson trichrome (Ferrini et al., 2002; Davila et al., 2003b) on adjacent 5 μm paraffin-embedded cross-sections from the human normal tunical or plaque tissues, or from a 2 mm area around the site of injection in the rat saline- and TGF-β1-injected shaft tissues. Other distal sections were obtained along the rat penile shaft.
The quantitation of the staining obtained by either histochemical or immunohisto/cytochemical techniques was performed by computerized densitometry using the ImagePro 4.01 program (Media Cybernetics, Silver Spring, Md.), coupled to an Olympus BHS microscope equipped with a Spot RT digital camera or VCC video camera (Wang et al., 2001; Ferrini et al., 2001a, 2001b; Davila et al., 2003b).

collagen I promoter = assay: Collagen I promoter reporter plasmid (β-galactosidase, luminometry) injected into the rat PD-like plaque; settings: L-NIL treated TGF-β1 rat, vs control TA
Description: The effect of L-NIL in increasing collagen in the TA of the TGF-β1 rat model may be due to an increase in collagen synthesis, a decrease in its normal breakdown, or both. To determine whether the larger PD plaque in the L-NIL treated rat is due, at least in part, to an increase in collagen I synthesis (the most prevalent collagen protein in the TA), and not simply to the inhibition of collagenolysis by the MMPs, we injected a cDNA plasmid construct of the collagen I promoter driving the expression of a reporter gene (Magee et al., 2002a) into the site of the original TGF-β1 or saline injection, 10 days prior to sacrifice and 35 days after the TGF-β1 injection. This plasmid is an indicator of collagen I transcriptional activity within the rat PD plaque.

[2] = test system: TGF-β1-induced fibrotic plaque in the rat tunica albuginea; assay: Nitrotyrosine and ROS marker (heme-oxygenase I) detection in the TA of the TGF-β1 rat model
Method: (§1) The determinations of iNOS, nitrotyrosine, heme-oxygenase I, PAI-I (Davila et al., 2003b), manganese superoxide dismutase (MnSOD), and CuZn SOD (Cu/Zn SOD) (Martin et al., 1994) were carried out on 5 μm paraffin-embedded adjacent tissue sections, that. were quenched for endogenous peroxidase activity after deparaffinization and rehydration. Sections were blocked with normal goat serum, and incubated with polyclonal IgG antibodies against mouse iNOS (1:500) (Transduction Laboratories, Lexington, KT), nitrotyrosine (1:100) (Upstate, Lake Placid, N.Y.), Mn SOD and Cu/Zn SOD (Oxygen, Portland, Oreg.) (1:800 and 1:500 respectively), heme oxygenase I (Stressgen, San Diego, Calif.), or PAI-1 (Abcam Ltd, Cambridge, UK). For negative controls the first antibodies were replaced by IgG isotype. The detection was based on a secondary anti-rabbit biotinylated antibody (1:200) for iNOS and nytrotyrosine (Calbiochem, La Jolla, Calif.), or anti-sheep biotinylated antibody (1:200) for Cu/Zn and Mn SOD, followed by the ABC complex (1:100) (Calbiochem) and 3,3′ diaminobenzidine (spelling) (DAB) (Sigma, St Louis Mo.). Sections were counterstained with hematoxylin.
The studies with L-arginine detailed in Example 1 show modulation of the size of the PD plaque by NO. […]

[3] = test system: arterial media of aged Brown Norway rats; assay: Aged rat arterial tree model, Masson staining (SMC/collagen), intima/media thickness and lumen diameter; settings: for intima media thickness / lumen diameter: OLD + L-NIL
Method: (§2) Arterial Tree Rodent Model. Young (3-month) and aged (22-24 month) male Brown Norway rats were obtained from the NIH/NIA colony (Harlan Sprague-Dawley, Inc., San Diego, Calif.), and maintained under controlled temperature and lighting. One half of the aged animals were treated for 3 weeks with L-NIL at 0.1 g/l in the drinking water, while the rest of the animals received plain drinking water. Animals were anesthetized, pretreated with heparin, and perfused through the left ventricle with saline followed by 4% formalin. The abdominal aorta, brachial and femoral neurovascular bundles as well as the penis, denuded of its skin, were removed and post-fixed overnight in 4% formalin, and washed and stored in PBS at 4 C until paraffin embedding.
SMC and collagen fibers within the corporal tissue and vascular tree were estimated by Masson trichromic staining (Sigma Diagnostic, St. Louis, Mo.) (Ferrini et al., 2002; Vernet et al., 2002; Davila et al, […]) in sections adjacent to those used for immunohistochemical staining, followed by image analysis to measure the ratio between SMC (red) and collagen fibers (blue). The results were expressed as red/blue ratios per area (see below). In the arterial tree, the intima/media thickness (IMT), and the diameter of the lumen were also measured.
(§3) For iNOS, nitroyrosine, heme-oxygenase, PAI-1, MnSOD and Cu/Zn SOD determination, at least 6 sections per specimen were analyzed. Each slide assayed had its corresponding negative control. In certain cases, the number of immuno-positive cells was determined as a percentage of the total counterstained nuclei in a computerized grid. In the Masson staining, the ratio between SMC (red) and collagen fibers (blue) was obtained and expressed per area.

[4] = test system: arterial media of aged Brown Norway rats; assay: Aged rat arterial tree model, immunohistochemistry for iNOS, nitrotyrosine, Cu/Zn SOD, heme oxygenase I, PAI
Method: as §2, §1, §3

[5] = test system: SMC in the media of the penile resistance arteries; assay: Aged rat arterial tree model, TUNEL apoptosis in the media of the penile arteries; settings: aged rats, L-NIL treatment
Method: as §2, §3

## CC(=N)NCCCC[C@H](N)C(=O)O [L-NIL, L-iminoethyl-L-lysine]
[1]
  expansion and thickening of the TA due to collagen fiber deposition: remarkable expansion and thickening of the TA
Collagen I promoter
  expression of the reporter β-galactosidase driven by the collagen I promoter (luminometry in tissue extracts): considerably intensified
[2]; iNOS activity blocked with L-NIL in the TGF-β1 rat model
  ROS levels: considerable elevation
[2]; long-term oral L-NIL, TGF-β1 injected rat
  peroxynitrite as indicated by nitrotyrosine formation in the TA: considerable increase
[3]; aged rats, L-NIL for 3 weeks
  collagen fibers within the media of the aorta and the dorsal penile artery: further increase in the collagen fibers
[3]; aged rats, L-NIL, aorta, femoral, dorsal, with the exception of the bulbourethral artery
  amount of collagen within the media (SMC/collagen ratio, image analysis): further exacerbation in the amount of collagen
[3]; aorta
  intima media thickness: 85.2 ± 6.6 μm
[3]; bulbo urethral
  intima media thickness: 9.9 ± 0.7 μm
  lumen diameter: 47.3 ± 6.6 μm
[3]; femoral
  intima media thickness: 51.8 ± 4.6 μm
[3]; penile dorsal
  intima media thickness: 23.6 ± 3.3 μm
  lumen diameter: 105.5 ± 16. μm
[4]; L-NIL
  effect on PAI expression in the aged media (quantitative image analysis): negligible
  expression of heme oxygenase I in the penile dorsal artery: did not induce a further significant change
  iNOS expression in the arterial media: reduction in iNOS expression
  peroxynitrite formation (nitrotyrosine) in the arterial media: reduction in peroxynitrite formation
[4]; L-NIL blockade of iNOS activity
  increase of Cu/Zn SOD (indirect marker of ROS), image analysis: 40 to 50%
[5]
  apoptotic index, dorsal and bulbourethral penile arteries: reduction
